Assay results reported in PubChem BioAssay AID1919017 (Molecular Pharmacology Branch, DTP, NCI, 2023).
pIC50: −log10 of the molar value.

Test system: SW1271 complex spheroids with HUVEC/MSC, growth, % test/control
Assay: Anticancer human tumor SW1271 cell line growth inhibition [AhR];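 note: spheroids exposed to agents for 7 days before readout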
Conditions: for pIC50: curve of first compound; for viability, T/C: stronger effect = lower value
In short: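 Complex tumor spheroids co-cultured with HUVEC and human MSC stroma; AhR antagonists tested in combination with standard-of-care and investigational agents. Top concentration at or near clinical Cmax (else 10 microM), half-log dilutions; growth expressed as percent test/control.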

[1] = second compound 0.1 µM, first compound 0.0316 µM
[2] = second compound 0.1 µM, first compound 0.1 µM
[3] = second compound 0.1 µM, first compound 0.316 µM
[4] = second compound 0.1 µM, first compound 1 µM
[5] = second compound 0.316 µM, first compound 0.0316 µM
[6] = second compound 0.316 µM, first compound 0.1 µM
[7] = second compound 0.316 µM, first compound 0.316 µM
[8] = second compound 0.316 µM, first compound 1 µM
[9] = second compound 1 µM, first compound 0.0316 µM
[10] = second compound 1 µM, first compound 0.1 µM
[11] = second compound 1 µM, first compound 0.316 µM
[12] = second compound 1 µM, first compound 1 µM
[13] = second compound 3.16 µM, first compound 0.0316 µM
[14] = second compound 3.16 µM, first compound 0.1 µM
[15] = second compound 3.16 µM, first compound 0.316 µM
[16] = second compound 3.16 µM, first compound 1 µM
[17] = second compound 10 µM, first compound 0.0316 µM
[18] = second compound 10 µM, first compound 0.1 µM
[19] = second compound 10 µM, first compound 0.316 µM
[20] = second compound 10 µM, first compound 1 µM

| SMILES | pIC50 (second compound 0.1 µM) | pIC50 (second compound 0.316 µM) | pIC50 (second compound 1 µM) | pIC50 (second compound 3.16 µM) | pIC50 (second compound 10 µM) | viability, T/C [1] [%] | viability, T/C [2] [%] | viability, T/C [3] [%] | viability, T/C [4] [%] | viability, T/C [5] [%] | viability, T/C [6] [%] | viability, T/C [7] [%] | viability, T/C [8] [%] | viability, T/C [9] [%] | viability, T/C [10] [%] | viability, T/C [11] [%] | viability, T/C [12] [%] | viability, T/C [13] [%] | viability, T/C [14] [%] | viability, T/C [15] [%] | other results |
| --- | --- | --- | --- | --- | --- | --- | --- | --- | --- | --- | --- | --- | --- | --- | --- | --- | --- | --- | --- | --- | --- |
| CC1COCCN1c1cc(-c2ccnn2C)c2ccnc(-c3ccn[nH]3)c2n1 (stereo not given) + Cc1ccccc1N=Nc1ccc(NC(=O)c2ccnn2C)c(C)c1 | 6.17 | < 6.00 | < 6.00 | < 6.00 | < 6.00 | 88.5 | 72.7 | 61.6 | 44.6 | 92.7 | 81.2 | 74.8 | 49.2 | 106 | 83.6 | 85.3 | 49.6 | 85.8 | 57 | 63.5 | viability, T/C (second compound 0.1 µM, first compound 0.00316 µM): 98.9%; viability, T/C (second compound 0.1 µM, first compound 0.01 µM): 97.4%; viability, T/C (second compound 0.316 µM, first compound 0.00316 µM): 102%; viability, T/C (second compound 0.316 µM, first compound 0.01 µM): 126%; viability, T/C (second compound 1 µM, first compound 0.00316 µM): 112%; viability, T/C (second compound 1 µM, first compound 0.01 µM): 96.9%; viability, T/C (second compound 3.16 µM, first compound 0.00316 µM): 100%; viability, T/C (second compound 3.16 µM, first compound 0.01 µM): 102%; viability, T/C [16]: 63%; viability, T/C (second compound 10 µM, first compound 0.00316 µM): 93.3%; viability, T/C (second compound 10 µM, first compound 0.01 µM): 95%; viability, T/C [17]: 99.9%; viability, T/C [18]: 72.3%; viability, T/C [19]: 55.1%; viability, T/C [20]: 58.2% |
| CC1COCCN1c1cc(C2(S(C)(=N)=O)CC2)nc(-c2ccnc3[nH]ccc23)n1 (stereo not given) + Cc1ccccc1N=Nc1ccc(NC(=O)c2ccnn2C)c(C)c1 | < 5.00 | < 5.00 | < 5.00 | < 5.00 | < 5.00 | 87.6 | 105 | 90.8 | 119 | 100 | 95.2 | 96.9 | 106 | 96.8 | 111 | 106 | 89.6 | 97.5 | 112 | 104 | viability, T/C (second compound 0.1 µM, first compound 3.16 µM): 89.4%; viability, T/C (second compound 0.1 µM, first compound 10 µM): 52.5%; viability, T/C (second compound 0.316 µM, first compound 3.16 µM): 67.6%; viability, T/C (second compound 0.316 µM, first compound 10 µM): 58.8%; viability, T/C (second compound 1 µM, first compound 3.16 µM): 90.4%; viability, T/C (second compound 1 µM, first compound 10 µM): 56.7%; viability, T/C [16]: 96.7%; viability, T/C (second compound 3.16 µM, first compound 3.16 µM): 70%; viability, T/C (second compound 3.16 µM, first compound 10 µM): 61.1%; viability, T/C [17]: 102%; viability, T/C [18]: 91.8%; viability, T/C [19]: 104%; viability, T/C [20]: 95.4%; viability, T/C (second compound 10 µM, first compound 3.16 µM): 68.1%; viability, T/C (second compound 10 µM, first compound 10 µM): 54.9% |
